From patent US6680335B2, “Methods of modulating protein tyrosine kinase function with substituted indolinone compounds” (Sugen, Inc., priority 1998, dated 2004)

How the values were obtained:
[1] = molecular target: T1, pyk-2 protein kinase (Homo sapiens, UniProt Q14289); assay: Assay measuring PYK-2 protein kinase activity (phosphorylation of a biotinylated peptide); assay type: biochemical; conditions: pyk-2 from transformed yeast lysate, 5 μM ATP; compound at 100 μM
T1 construct: made in house; host or cells: Schizosaccharomyces pombe strain SP200, pRSP expression plasmids
Description: This assay is used to determine pyk-2 protein kinase activity measuring phosphorylation of a biotinylated peptide as the readout.
a. Yeast transformed with pyk-2.
b. Cell lysates: Yeast cells expressing pyk-2 are pelleted, washed once with water, re-pelleted and stored at −80° C. until use.
(§1) c. N-terminus biotinylated […] is prepared by standard procedures well known to those skilled in the art.
(§2) h. […] S. Pombe strain SP200 (h-s leul.32 ura4 ade21O) was grown as described and transformations were pRSP expression plasmids were done by the lithium acetate method (Superti-Furga, supra). Cells were grown in the presence of 1 μM thiamine to repress expression from the nmtl promoter or in the absence of thiamine to induce expression.
a. Preparation of pyk-2 coated ELISA plate.
1. Coat ELISA plate with 0.5 μg/well anti-pyk-2 mab in 100 μL of pH 9.6 sodium carbonate buffer at 4° C. overnight.
(§3) 2. Wash wells once with PBS.
(§4) 3. Block plate with 0.15 mL 5% milk in PBS for 30 min. at room temperature.
(§5) 4. Wash plate 5× with PBS.
5. Add 10 μg/well of pyk-2 transformed yeast lysates diluted in Lysis Buffer (0.1 mL total volume per well). (Amount of lysate may vary between hatches.) Shake plate for 20 minutes at room temperature.
(§6) b. Preparation of phosphotyrosine antibody-coated ELISA plate.
(§7) 1. 4G10 plate: coat 0.5 μg/well 4G10 in 100 μL PBS overnight at 4° C. and block with 150 μL of 5% milk in PBS for 30 minutes at room temperature.
(§8) c. Kinase assay procedure.
(§9) 1. Remove unbound proteins from steps 1-7, above, and wash plates 5× with PBS.
2. Add 0.08 mL Kinase Reaction Mixture per well (containing […] of 10×Kinase Buffer and 10 pM (final concentration) biotin-[…] per well diluted in water.
(§10) 3. Add 10 μL of compound diluted in water containing 10% DMSO and pre-incubate for 15 minutes at room temperature.
(§11) 4. Start kinase reaction by adding 10 μL/well of 0.05 mM ATP in water (5 μM ATP final).
(§12) 5. Shake ELISA plate for 15 min. at room temperature.
(§13) 6. Stop kinase reaction by adding 10 μL of 0.5 M EDTA per well.
(§14) 7. Transfer 90 μL supernatant to a blocked 4G10 coated ELISA plate from section B, above.
(§15) 8. Incubate for 30 min. while shaking at room temperature.
(§16) 9. Wash plate 5× with TBST.
(§17) 10. Incubate with Vectastain ELITE ABC reagent (100 μL/well) for 30 min. at room temperature.
(§18) 11. Wash the wells 5× with TBST.
(§19) 12. Develop with Turbo TMB.
(§20) The IC50 values were measured for several of the compounds of the invention.

[2] = molecular target: T2, FLK-1 receptor (Mus musculus, UniProt P35918); assay: ELISA assay measuring the kinase activity of the FLK-1 receptor in cells engineered to express FLK-1; assay type: cell-based; conditions: FLK-1 expressing NIH3T3 C7#3 cells, VEGF stimulated; for inhibition at 100 µM: compound at 100 μM
T2 construct: expressed in transfected cells; host or cells: NIH3T3 C7#3 cells
Description: An ELISA assay was conducted to measure the kinase activity of the FLK-1 receptor and more specifically, the inhibition or activation of TK activity on the FLK-1 receptor. Specifically, the following assay was conducted to measure kinase activity of the FLK-1 receptor in cells genetically engineered to express FLK-1.
(11) NIH3T3 C7#3 Cells (FLK-1 expressing cells);
The following protocol was used for conducting the assay:
1. Coat Corning 96-well elisa plates with 1.0 μg per well Cappel Anti-rabbit IgG antibody in 0.1 M Na2CO3 pH 9.6. Bring final volume to 150 μL per well. Coat plates overnight at 4° C. Plates can be kept up to two weeks when stored at 4° C.
2. Grow cells in Growth media (DMEM, supplemental with 2.0 mM L-Glutamine, 10% FBS) in suitable culture dishes until confluent at 37° C., 5% CO2.
3. Harvest cells by trypsinization and seed in Corning 25850 polystyrene 96-well roundbottom cell plates, 25.000 cells/well in 200 μL of growth media.
4. Grow cells at least one day at 37° C., 5% CO2.
5. Wash cells with D-PBS 1×.
6. Add 200 μL/well of starvation media (DMEM, 2.0 mM 1-Glutamine, 0.1% FBS). Incubate overnight at 37° C., 5% CO2.
7. Dilute Compounds 1:20 in polypropylene 96 well plates using starvation media. Dilute dimethylsulfoxide 1:20 for use in control wells.
8. Remove starvation media from 96 well cell culture plates and add 162 μL of fresh starvation media to each well.
9. Add 18 μL of 1:20 diluted Compound dilution (from step 7) to each well plus the 1:20 dimethylsulfoxide dilution to the control wells (+/−VEGF), for a final dilution of 1:200 after cell stimulation. Final dimethylsulfoxide is 0.5%. Incubate the plate at 37° C., 5% CO2 for two hours.
10. Remove unbound antibody from ELISA plates by inverting plate to remove liquid. Wash 3 times with TBSW+0.5% ethanolamine, pH 7.0. Pat the plate on a paper towel to remove excess liquid and bubbles.
11. Block plates with TBSW+0.5% Ethanolamine, pH 7.0, 150 μL per well. Incubate plate thirty minutes while shaking on a microliter plate shaker.
12. Wash plate 3 times as described in step 10.
13. […] Bring final volume to 150 μL/well with TBSW+0.5% ethanolamine pH 7.0. Incubate plate for thirty minutes while shaking.
14. Add 180 μL starvation medium to the cells and stimulate cells with 20 μL/well 10.0 mM sodium ortho vanadate and 500 ng/mL VEGF (resulting in a final concentration of 1.0 mM sodium ortho vanadate and 50 ng/mL VEGF per well) for eight minutes at 37° C., 5% CO2. Negative control wells receive only starvation medium.
15. After eight minutes, media should be removed from the cells and washed one time with 200 μL/well PBS.
16. Lyse cells in 150 μL/well HNTG while shaking at room temperature for five minutes. HNTG formulation includes sodium ortho vanadate, sodium pyro phosphate and EDTA.
17. Wash ELISA plate three times as described in step 10.
18. Transfer cell lysates from the cell plate to ELISA plate and incubate while shaking for two hours. To transfer cell lysate pipette up and down while scrapping the wells.
19. Wash plate three times as described in step 10.
20. Incubate ELISA plate with 0.02 μg/well UB40 in TBSW+05% ethanolamine. Bring final volume to 150 μL/well. Incubate while shaking for 30 minutes.
21. Wash plate three times as described in step 10.
22. Incubate ELISA plate with 1:10,000 diluted EIA grade goat anti-mouse IgG conjugated horseradish peroxidase in TBSW+0.5% ethanolamine, pH 7.0. Bring final volume to 150 μL/well. Incubate while shaking for thirty minutes.
23. Wash plate as described in step 10.
24. Add 100 μL of ABTS/H2O2 solution to well. Incubate ten minutes while shaking.
25. Add 100 μL of 0.2 M HCl for 0.1 M HCl final to stop the color development reaction. Shake 1 minute at room temperature. Remove bubbles with slow stream of air and read the ELISA plate in an ELISA plate reader at 410 nm.
as §20

[3] = molecular target: T3, src protein kinase (Gallus gallus, UniProt P00523); assay: Assay measuring SRC protein kinase activity (phosphorylation of a biotinylated peptide); assay type: biochemical; conditions: src from transformed yeast lysate, 5 μM ATP; compound at 100 μM
T3 construct: made in house; host or cells: Schizosaccharomyces pombe strain SP200, pRSP expression plasmids
Description: This assay is used to determine src protein kinase activity measuring phosphorylation of a biotinylated peptide as the readout.
a. Yeast transformed with src.
b. Cell lysates: Yeast cells expressing src are pelleted, washed once with water, re-pelleted and stored at −80° C. until use.
as §1, §2
a. Preparation of src coated ELISA plate.
1. Coat ELISA plate with 0.5 μg/well anti-src mab in 100 μL of pH 9.6 sodium carbonate buffer at 4° C. overnight.
as §3, §4, §5
5. Add 10 μg/well of src transformed yeast lysates diluted in Lysis Buffer (0.1 mL total volume per well). (Amount of lysate may vary between hatches.) Shake plate for 20 minutes at room temperature.
as §6, §7, §8, §9
2. Add 0.08 mL Kinase Reaction Mixture per well (containing 10 μL of 10×Kinase Buffer and 10 μM (final concentration) biotin-[…] per well diluted in water.
as §10, §11, §12, §13, §14, §15, §16, §17, §18, §19, §20

T1 sequence (Q14289 whole entry): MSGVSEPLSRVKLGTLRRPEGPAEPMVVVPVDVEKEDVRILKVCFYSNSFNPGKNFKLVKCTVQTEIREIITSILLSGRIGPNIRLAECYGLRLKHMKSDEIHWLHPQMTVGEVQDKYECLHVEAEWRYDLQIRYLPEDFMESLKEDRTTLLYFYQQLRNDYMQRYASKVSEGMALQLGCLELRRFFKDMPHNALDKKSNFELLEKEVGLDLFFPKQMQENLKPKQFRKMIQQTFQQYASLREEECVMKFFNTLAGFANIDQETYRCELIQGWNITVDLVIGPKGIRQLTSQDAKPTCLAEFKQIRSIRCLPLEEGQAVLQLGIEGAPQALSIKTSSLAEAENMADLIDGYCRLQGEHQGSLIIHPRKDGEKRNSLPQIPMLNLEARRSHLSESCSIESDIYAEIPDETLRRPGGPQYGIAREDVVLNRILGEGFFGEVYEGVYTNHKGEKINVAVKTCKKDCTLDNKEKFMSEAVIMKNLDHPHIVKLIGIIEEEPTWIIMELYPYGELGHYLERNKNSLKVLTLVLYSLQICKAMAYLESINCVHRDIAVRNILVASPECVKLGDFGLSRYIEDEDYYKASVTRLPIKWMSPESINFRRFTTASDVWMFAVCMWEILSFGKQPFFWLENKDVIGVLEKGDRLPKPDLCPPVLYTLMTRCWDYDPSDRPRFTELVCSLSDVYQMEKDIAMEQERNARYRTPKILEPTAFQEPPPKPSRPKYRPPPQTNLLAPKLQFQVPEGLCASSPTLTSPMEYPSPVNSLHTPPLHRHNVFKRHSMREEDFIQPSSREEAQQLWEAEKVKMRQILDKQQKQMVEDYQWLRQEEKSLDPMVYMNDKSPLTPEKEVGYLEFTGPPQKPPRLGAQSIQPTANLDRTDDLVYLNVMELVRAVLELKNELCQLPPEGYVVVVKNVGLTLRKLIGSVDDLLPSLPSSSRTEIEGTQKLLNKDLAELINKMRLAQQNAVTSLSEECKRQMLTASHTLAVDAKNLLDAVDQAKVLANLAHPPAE
T2 sequence (P35918 20-1345): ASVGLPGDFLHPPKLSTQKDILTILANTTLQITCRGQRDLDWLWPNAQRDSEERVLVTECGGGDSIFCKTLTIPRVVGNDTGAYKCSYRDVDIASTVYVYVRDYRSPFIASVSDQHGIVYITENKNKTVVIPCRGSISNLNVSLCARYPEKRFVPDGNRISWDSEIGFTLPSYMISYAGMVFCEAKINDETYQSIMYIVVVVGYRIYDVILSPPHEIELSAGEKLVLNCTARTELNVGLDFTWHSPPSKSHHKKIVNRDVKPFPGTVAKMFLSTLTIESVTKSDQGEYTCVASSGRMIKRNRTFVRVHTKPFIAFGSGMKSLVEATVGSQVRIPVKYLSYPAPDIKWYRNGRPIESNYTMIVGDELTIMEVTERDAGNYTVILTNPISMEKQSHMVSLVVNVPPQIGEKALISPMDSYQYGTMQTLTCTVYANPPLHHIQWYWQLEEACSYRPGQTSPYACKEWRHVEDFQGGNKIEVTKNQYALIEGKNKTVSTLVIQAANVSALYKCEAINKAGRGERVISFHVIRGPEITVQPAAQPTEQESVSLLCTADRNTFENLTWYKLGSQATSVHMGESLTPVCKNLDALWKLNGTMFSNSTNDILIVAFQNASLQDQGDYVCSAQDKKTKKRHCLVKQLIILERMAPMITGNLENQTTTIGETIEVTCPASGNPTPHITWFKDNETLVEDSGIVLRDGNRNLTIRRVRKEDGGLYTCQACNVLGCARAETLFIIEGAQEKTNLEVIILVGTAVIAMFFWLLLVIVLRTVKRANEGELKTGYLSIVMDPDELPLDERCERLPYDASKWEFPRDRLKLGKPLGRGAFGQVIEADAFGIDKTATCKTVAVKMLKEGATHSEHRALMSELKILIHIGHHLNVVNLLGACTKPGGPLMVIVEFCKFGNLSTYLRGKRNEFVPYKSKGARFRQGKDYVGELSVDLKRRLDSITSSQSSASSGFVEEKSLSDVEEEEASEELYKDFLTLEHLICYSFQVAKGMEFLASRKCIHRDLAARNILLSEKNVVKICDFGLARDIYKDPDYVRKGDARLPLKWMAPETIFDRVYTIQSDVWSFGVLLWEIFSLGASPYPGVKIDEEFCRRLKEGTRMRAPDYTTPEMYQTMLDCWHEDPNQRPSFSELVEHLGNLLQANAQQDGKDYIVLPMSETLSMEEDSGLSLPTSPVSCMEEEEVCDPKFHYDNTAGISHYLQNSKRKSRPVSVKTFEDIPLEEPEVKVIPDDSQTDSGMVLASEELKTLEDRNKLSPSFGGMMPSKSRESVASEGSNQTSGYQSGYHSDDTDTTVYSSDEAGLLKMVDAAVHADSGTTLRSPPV

Row | Compound | inhibition at 100 µM [1] [%] | inhibition at 100 µM [2] [%] | inhibition at 100 µM [3] [%] | IC50 ([2]; cells without % or + sign) [µM]
1 | Cc1c(C=C2C(=O)Nc3ccc(S(=O)(=O)N(C)C)cc32)[nH]c2ccccc12 (mixture of isomers) [IN-004, 3-(3-Methyl-1H-indol-2-ylmethylene)-2-oxo-2,3-dihydro-1H-indole-5-sulfonic acid dimethylamide] | 44.4 | 7 | -4.6 | 
2 | CNS(=O)(=O)c1ccc2c(c1)C(=Cc1[nH]c3ccccc3c1C)C(=O)N2 [IN-003, 3-(3-Methyl-1H-indol-2-ylmethylene)-2-oxo-2,3-dihydro-1H-indole-5-sulfonic acid methylamide] | 67.5 | 11 |  | 
3 | O=C1Nc2ccc(Br)cc2C1=Cc1cc2ccccc2[nH]1 [IN-014, 5-Bromo-3-(1H-indol-2-ylmethylene)-1,3-dihydro-indol-2-one] | -14 | 10 | -2.4 | 
4 | Cc1cccc2c1C(=Cc1cc3ccccc3[nH]1)C(=O)N2 [IN-015, 3-(1H-indol-2-ylmethylene)-4-methyl-1,3-dihydro-indol-2-one] | 3.9 | 26 | 16 | 
5 | O=C1Nc2ccc(/N=C/c3cc4ccccc4[nH]3)cc2/C1=C/c1cc2ccccc2[nH]1 [IN-020, 3-(1H-indol-2-ylmethylene)-5-[(1H-indol-2-ylmethylene)-amino]-1,3-dihydro-indol-2-one] | 64.3 |  | 7.62 | > 100
